Assay results: US9551722B2, “Amyloid binding agents” (The Regents of the University of California, priority 2009, dated 2017)

Molecular target: T1, aggregated Aβ(1-42) peptides (Homo sapiens, UniProt P05067)
T1 construct: preaggregated Aβ(1-42) peptides
Assay: Fluorescence spectra before and after mixing with preaggregated Aβ(1-42) (Cmpds 8a-8d, 11, 14, 19)
Type: binding
Details: for Emission max before binding / Excitation max before binding: 4 μM compound in PBS, without Aβ; for Emission max before binding / Excitation max before binding / Emission max after binding / Excitation max after binding: 25° C.; for Fold increase (fluorescence intensity after binding) / Emission max after binding / Excitation max after binding: 4 μM compound, 5 μM aggregated Aβ(1-42); for Emission max after binding / Excitation max after binding: PBS
Excerpt: An initial study to determine whether a compound can associate with aggregated Aβ is to compare its fluorescence spectra before and after mixing with the Aβ aggregates. See E. E. Nesterov, J. Skoch, B. T. Hyman, W. E. Klunk, B. J. Bacskai, T. M. Swager, Angew. Chem. Int. Edit. 2005, 44:5452-5456; Z. P. Zhuang, M. P. Kung, H. F. Kung, J. Med. Chem. 2006, 49:2841-2844; Q. A. Li, J. S. Lee, C. Ha, C. B. Park, G. Yang, W. B. Gan, Y. T. Chang, Angew. Chem. Int. Edit. 2004, 43:6331-6335; H. F. Kung, C. W. Lee, Z. P. Zhuang, M. P. Kung, C. Hou, K. Plossl, J. Am. Chem. Soc. 2001, 123:12740-12741. […] See H. LeVine III, Protein Sci. 1993, 2:404-410. Along these lines we measured the fluorescent properties of each compound at 4 μM concentration before and after mixing with preaggregated Aβ(1-42) peptides (5 μM, aggregated in PBS buffer for 3 days at 25° C.).
Aggregated Aβ peptide was prepared by dissolving Aβ(1-42) in PBS pH 7.4 to a final concentration of 100 μM. This solution was magnetically stirred at 1200 rpm for 3 days at room temperature. The 100 μM Aβ(1-42) stock solution in PBS was aliquoted and frozen at […] for up to 4 weeks without noticeable change in its property. 150 μL of pre-aggregated Aβ(1-42) was added to 2.85 mL of compound to attain a final concentration of 5 μM Aβ(1-42) and 4 μM of compound. The solution was transferred to 3 mL cuvette and the fluorescence measured at 25° C. […] The fluorescence excitation spectra of Cmpds 8a, 8b, 8c, 14 and 19 are depicted in FIG. 4, respectively.

T1 sequence (P05067 672-713 limits assumed): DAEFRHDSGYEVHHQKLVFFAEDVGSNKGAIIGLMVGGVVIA

Row | Compound | Emission max before binding [nm] | Excitation max before binding [nm] | Fold increase (fluorescence intensity after binding) [fold] | Emission max after binding [nm] | Excitation max after binding [nm] | Red shift of emission upon binding (binding to preaggregated Aβ) [nm]
1 | CN(C)c1ccc(/C=C(\C#N)C(=O)OCC(O)CO)cc1 (stereo not shown) [Cmpd 14, (E)-2,3-dihydroxypropyl 2-cyano-3-(4-(dimethylamino)phenyl) acrylate] | 476 | 437 | 2.2 | 467 | 434 | –
2 | COCCOCCOCCOC(=O)/C(C#N)=C/c1ccc2cc(N3CCCCC3)ccc2c1 [Cmpd 11, (E)-2-(2-(2-methoxyethoxyl)ethoxy)ethyl-2-cyano-3-(6-(piperidin-1-yl)naphthalen-2-yl)acrylate] | 462 | 445 | 9.3 | 538 | 440 | 76

Results, then the molecule that gave them:

Row | Emission max before binding [nm] | Excitation max before binding [nm] | Fold increase (fluorescence intensity after binding) [fold] | Emission max after binding [nm] | Excitation max after binding [nm] | Red shift of emission upon binding (binding to preaggregated Aβ) [nm] | Compound
3 | 476 | 439 | 1.8 | 470 | 435 | – | COCCOCCOCCOC(=O)/C(C#N)=C/c1ccc(N(C)C)cc1 [Cmpd 8a, (E)-2-(2-(2-methoxyethoxyl)ethoxy)ethyl 2-cyano-3-(4-(dimethylamino)phenyl)acrylate]
4 | 478 | 442 | 1.3 | 469 | 444 | – | COCCOCCOCCOC(=O)/C(C#N)=C/c1ccc(N(C)C)cc1OC [Cmpd 8b, (E)-2-(2-(2-methoxyethoxyl)ethoxy)ethyl 2-cyano-3-(4-(dimethylamino)-2-methoxyphenyl)acrylate]
5 | 478 | 445 | 4.2 | 470 | 442 | – | CCN(CC)c1ccc(C=C(C#N)C(=O)OCCOCCOCCOC)cc1 (stereo in doubt) [Cmpd 8c, (Z)-2-(2-(2-methoxyethoxyl)ethoxy)ethyl 2-cyano-3-(4-(diethylamino)phenyl)acrylate]
6 | 466 | 432 | 9.4 | 468 | 440 | – | CCCCN(CCCC)c1ccc(C=C(C#N)C(=O)OCCOCCOCCOC)cc1 (stereo in doubt) [Cmpd 8d, (Z)-2-(2-(2-methoxyethoxyl)ethoxy)ethyl-2-cyano-3-(4-(dibutylamino)phenyl)acrylate]
